Results as given in US10766869B2, “Triazoles for the treatment of demyelinating dieases” (Vertex Pharmaceuticals Incorporated, priority 2015, dated 2020).
Like-named read-outs stand apart in the source and are kept apart here.

Test system: primary rat mixed cortical cells
Assay: In vitro myelination assay (MBP positive myelin strands, fold myelin pixels above background)
Format: cell-based
Conditions: Rattus norvegicus; for fold induction at 1 µM: 1.0 μM compound; for fold induction at 10 µM: 10.0 μM compound
How it was run: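 P1 rat mixed cortical cultures (neurons, OPCs, oligodendrocytes, astrocytes, microglia) grown 14 days at 37 °C with compound, half-medium refreshed with compound on days 6 and 10. Fixed cells stained for MBP; MBP-positive myelin strand pixels per well quantified by automated imaging, reported as fold over no-compound baseline at 1.0 and 10.0 μM.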

[1] = relative to baseline of no added compound, read-out: Fold myelin pixels above background, 1.0 μM
[2] = relative to baseline of no added compound, read-out: Fold myelin pixels above background, 10.0 μM
[3] = read-out: Fold myelin pixels above background relative to baseline of no added compound
[4] = relative to baseline of no added compound, read-out: Fold myelin pixels above background

| SMILES | fold induction at 1 µM [1] | fold induction at 10 µM [2] | also measured |
| --- | --- | --- | --- |
| COc1cc(-n2cnc(Nc3cc(C4CC4)cc(N4CCN(C5COC5)CC4)c3)n2)ncn1 [Compound 377, N-[3-cyclopropyl-5-[4-(oxetan-3-yl)piperazin-1-yl]phenyl]-1-(6-methoxypyrimidin-4-yl)-1,2,4-triazol-3-amine] | 100 to 1000 | 10 to 100 | – |
| Cc1cc(Nc2ncn(-c3ccc(F)c(F)c3)n2)cc(N2CCOCC2)c1 [Compound 43, 1-(3,4-difluorophenyl)-N-(3-methyl-5-morpholino-phenyl)-1,2,4-triazol-3-amine] | 100 to 1000 | 100 to 1000 | – |
| FC(F)c1cc(Nc2ncn(-c3ccccc3)n2)cc(N2CCN(C3COC3)CC2)c1 [Compound 26, N-[3-(difluoromethyl)-5-[4-(oxetan-3-yl)piperazin-1-yl]phenyl]-1-phenyl-1,2,4-triazol-3-amine] | 100 to 1000 | ≤ 1 | – |
| Cc1cc(Nc2ncn(-c3cc(F)cc(F)c3)n2)cc(N2CC(N3CCN(C)CC3)C2)c1 [Compound 975, 1-(3,5-difluorophenyl)-N-[3-methyl-5-[3-(4-methylpiperazin-1-yl)azetidin-1-yl]phenyl]-1,2,4-triazol-3-amine] | – | – | fold induction at 1 µM [3]: 1 to 10; fold induction at 10 µM [3]: ≤ 1 |
| Cc1cc(Nc2ncn(-c3ccnc(C)n3)n2)cc(N2CCN(C3COC3)CC2)c1 [Compound 418, N-[3-methyl-5-[4-(oxetan-3-yl)piperazin-1-yl]phenyl]-1-(2-methylpyrimidin-4-yl)-1,2,4-triazol-3-amine] | – | – | fold induction at 1 µM [4]: ≤ 1; fold induction at 10 µM [4]: 10 to 100 |
| Cc1cc(Nc2ncn(-c3ccccc3)n2)cc(C2CCN(C3COC3)CC2)c1 [Compound 71, N-[3-methyl-5-[1-(oxetan-3-yl)-4-piperidyl]phenyl]-1-phenyl-1,2,4-triazol-3-amine] | 1000 to 10000 | ≤ 1 | – |
| Fc1cccc(-n2cnc(Nc3cc(C(F)F)cc(N4CCN(C5COC5)CC4)n3)n2)c1 [Compound 525, 4-(difluoromethyl)-N-[1-(3-fluorophenyl)-1,2,4-triazol-3-yl]-6-[4-(oxetan-3-yl)piperazin-1-yl]pyridin-2-amine] | – | – | fold induction at 1 µM [4]: 100 to 1000; fold induction at 10 µM [4]: 10 to 100 |
| COCC1CCN(c2cc(C(F)(F)F)cc(Nc3ncn(-c4cccc(C(F)F)c4)n3)n2)CC1 [Compound 807, N-[1-[3-(difluoromethyl)phenyl]-1,2,4-triazol-3-yl]-6-[4-(methoxymethyl)-1-piperidyl]-4-(trifluoromethyl)pyridin-2-amine] | – | – | fold induction at 1 µM [3]: 1 to 10; fold induction at 10 µM [3]: 1 to 10 |
| COc1cccc(-n2cnc(Nc3cc(Cl)nc(N4CCOCC4)c3)n2)c1 [Compound 145, 2-chloro-N-[1-(3-methoxyphenyl)-1,2,4-triazol-3-yl]-6-morpholino-pyridin-4-amine] | 10 to 100 | 10 to 100 | – |
| Cc1cc(Nc2ncn(-c3ccccn3)n2)c(F)c(N2CCN(C3COC3)CC2)c1 [Compound 908, N-[2-fluoro-5-methyl-3-[4-(oxetan-3-yl)piperazin-1-yl]phenyl]-1-(2-pyridyl)-1,2,4-triazol-3-amine] | – | – | fold induction at 1 µM [3]: 1 to 10; fold induction at 10 µM [3]: 10 to 100 |
| c1ccc(-n2cnc(Nc3cc(C4CCOC4)cc(N4CCOCC4)c3)n2)cc1 (centres unmarked) [Compound 165, N-(3-morpholino-5-tetrahydrofuran-3-yl-phenyl)-1-phenyl-1,2,4-triazol-3-amine] | 100 to 1000 | 10 to 100 | – |
| Cc1cc(Nc2ncn(-c3cc(F)cc(F)c3)n2)cc(N2CCN(C)C(C)C2)c1 (centres unmarked) [Compound 119, 1-(3,5-difluorophenyl)-N-[3-(3,4-dimethylpiperazin-1-yl)-5-methyl-phenyl]-1,2,4-triazol-3-amine] | 100 to 1000 | 10 to 100 | – |
| Cc1cc(Nc2ncn(-c3cccc(C(F)F)c3)n2)nc(N2CC(N3CCOCC3)C2)c1 [Compound 768, N-[1-[3-(difluoromethyl)phenyl]-1,2,4-triazol-3-yl]-4-methyl-6-(3-morpholinoazetidin-1-yl)pyridin-2-amine] | – | – | fold induction at 1 µM [4]: ≤ 1; fold induction at 10 µM [4]: 1 to 10 |
